Assay results taken from patent publication US5561131A, “Defaunation method” (Mallinckrodt Veterinary, Inc., priority 1991, dated 1996).

What was measured:
rumen bacteria [1] = experiment: In vitro bacterial gas inhibition; format: cell-based; settings: at the concentration known to kill protozoa
Method: Compounds of Table 1 were also tested for toxicity bacteria. This involved removing protozoa from rumen liquor by centrifugation at 2,000 g for 5 minutes and collecting the bacterial rich supernatant. Nitrogen and energy substrate was added to the bacterial preparation which was then dispensed in triplicate 10 ml volumes over the same range of compound concentrations (50, 150, 250 and 500 ppm.) referred to in Example 2. Control tubes were placed after every second compound to enable the inhibition of gas resulting from the compound to be assessed. […] It can be seen that these compounds are selective in their mode of action, in that they are more toxic to protozoa than bacteria.

rumen ciliate protozoa [2] = experiment: In vitro activity of defaunation compounds against rumen ciliate protozoa; format: cell-based; settings: 39° C., anaerobic, 3 hours, tested at 50, 150, 250 and 500 ppm
Method: Compounds of Table 1 were tested for their toxicity against rumen ciliate protozoa by firstly isolating protozoa from rumen liquor collected from faunated animals. The rumen liquor was then centrifuged at 500 g for five minutes and the supernatant discarded. The protozoal-rich sediment was then reconstituted in McDougal's artificial saliva. Residual bacteria were suppressed by using a combination of two antibiotics at low concentration. Nitrogen and energy substrate was optimized for the protozoal preparation. At all times the protozoal preparation was maintained at 39° C. and kept anaerobic.
Sixty milligrams of each the compounds of Table 1 were dissolved in 1.2 ml of dimethyl sulphoxide and dispersed in triplicate to achieve a final concentration of 50, 150, 250 and 500 ppm. Ten milliliters of protozoal preparation was then added to each tube. After every second compound, control tubes were included which contained everything except for compound. The tubes, to which a 5 ml glass syringe was attached, were then incubated for 3 hours in a water bath at 39° C. The production of gas causes the syringe plunger to be displaced.
At the end of the incubation period, the volume of gas produced was recorded and the viability of the protozoa assessed visually using a microscope. The toxicity of the compounds to protozoa was assessed from both the reduction in gas produced relative to the control and by direct observation of the protozoa for movement of cilia.

[3] = Effect of defaunation compounds on feed intake of sheep; format: in vivo; settings: after dosing vs pre-dosing intake
Method: Sheep were allowed a minimum of three weeks to adapt to their ration of 900 g of oaten chaff and 100 g of Lucerne chaff. The pre-dosing level of intake for each animal was established from the mean of five days intake immediately prior to dosing. Any effects of administering the compound on feed intake was then determined by measuring the level of feed intake after dosing.
The criteria of classifying the effect on food intake are shown below.
Poor--greater than 50% reduction in feed intake during the first week after dosing.
Fair--greater than 50% reduction in feed intake on the day following dosing but less then 50% reduction one week after dosing.
OK--transient drop in feed intake which is less than 50% on the day after dosing.
Good--No reduction in feed intake following dosing.

rumen ciliate protozoa [4] = experiment: Protozoal reduction in sheep; format: in vivo; parameters: concentration or dose not given beside the values; settings: one week after dosing, relative to predosing numbers
Method: Defaunation compositions were prepared according to the method of Example 1.
Prior to dosing of the compound, a sample of rumen liquor (200 ml) was withdrawn to establish basal numbers of protozoa.
The sample was collected using a stomach tube, inserted into the rumen via a rumen cannula (fistulated animals) or per esophagus (intact animals). After straining the sample was well mixed using a magnetic stirrer and a 0.5 ml sample was withdrawn and added to 49.5 ml of a crystal violet stain. Protozoa were counted using a microscope and a Hawksley counting chamber.
One week after administering the compound, another rumen liquor sample was collected (as described above) and examined for the presence of protozoa. Where rumen ciliate protozoa were undetectable, a reduction or inhibition value of 100% was recorded. In general, most compounds expressed a strong inhibitory effect on protozoal populations.

mice = experiment: Mouse safety assessment; format: in vivo; settings: oral gavage, 830, 415 and 217 mg/kg, observed for 2 days
Method: Compounds of Table 1 chosen for testing in sheep were first tested in mice for signs of toxicity. Because sheep are approximately 5 times more sensitive than mice to compounds dosed orally, the dose rates applied to mice were 5 times greater than the target dose rate of 500 ppm. in rumen liquor (83 mg/kg live weight) used for sheep. Each compound was screened at three different dose levels, high (830 mg/kg), medium (415 mg/kg) and low (217 mg/kg).
252 mg of compound was used for dilution into a high medium and low dose rate. 252 mg of compound was mixed with 3 ml of G1284 solution (4% w/v ethoxylated castor oil and 0.05% w/v simethicone), to form the high dose composition. The medium dose composition was formed by diluting 1.5 ml of the high dose with 1.5 ml of G1284 solution. The low dose composition was formed by diluting 1.5 ml of the medium dose with 1.5 ml of G1284 solution. Before the high dose could be diluted it was first manually ball milled in an effort to produce a fine suspension of the compound.
All mice were weighed before dosing to calculate the appropriate dose rate. The calculation for dose rate was: [formula]
Each mouse was dosed using the Gavage method. With this method the mouse is dosed orally by way of an angled hypodermic needle (18 g) with a smooth spherical end. It is gently placed down the esophagus. All care must be taken not to force the needle and injure the esophagus or dose into the lungs.
Observations were made at 10, 30, 60 and 120 minutes after dosing, then every 1 or 2 hours for the first 6 hours.
Mice were usually observed for 2 days.
Typically, few compounds fell within the poor classification. The majority of compounds tested were either in the fair or good classification.

rumen bacteria [5] = experiment: Bacterial viability in sheep after administering defaunation compounds; format: in vivo; settings: gas production one week after dosing vs pre-dosing
Method: In order to establish what effect the compounds had on the viability of rumen bacteria, a sample of rumen liquor was collected prior to dosing of the compound. The sample was withdrawn under vacuum using a pre-warmed tube inserted into the rumen through a rumen cannula. The sample was collected in a pre-warmed (39° C.) flask, gassed with carbon dioxide and covered. Two-pre-warmed 30 ml centrifuge tubes were then filled with well mixed rumen liquor and centrifuged at 2000 rpm for 5 minutes. Half the volume of each tube was then poured into another pre-warmed tube without disturbing the sediment. Three lots of 10 ml of this rumen liquor were then pipetted into 15 ml tubes which contained 10 μL of urea solution (40% w/v and 300 μL of glucose solution (50% w/v). The urea and glucose acted as substrate for the bacteria. The tubes were then gassed with carbon dioxide, stoppered and placed in a water bath at 39° C. After 10 minutes a 5 ml glass syringe was secured into the stoppers (through which a hypodermic needle had been inserted) and the gas collected for five hours and recorded.
This bacterial viability measure was then repeated one week after dosing with each of the compounds referred to in Table 1. Defaunation compositions were prepared according to the method of Example 1. The amount of gas produced was then compared with the pre-dosing level. The criterion for classifying post-dosing bacterial viability is shown below:
Poor--reduction in post-dosing gas production relative to pre-dosing levels.
OK--post-dosing gas production the same as pre-dosing levels.
Good--increase in post-dosing gas production relative to pre-dosing levels.

| SMILES | Bact. Gas Inhibition at the conc. required to kill protozoa (rumen bacteria [1]) | Conc Required to Kill all Protozoa (rumen ciliate protozoa [2]) [ppm] | Feed Intake [3] | Protozoal Reduction (rumen ciliate protozoa [4]) [%] | Mouse Safety Assessment (mice) | Bacterial Viability (rumen bacteria [5]) |
| --- | --- | --- | --- | --- | --- | --- |
| Clc1nc(Cl)nc(Nc2ccccc2)n1 [Compound 1] | 43 | 250 | – | – | – | – |
| Clc1ccc(Nc2nc(Cl)nc(Cl)n2)cc1 [Compound 2] | 38 | 150 | Fair | 100 | Poor (death at 840 mg/kg) | Good |
| Clc1nc(Cl)nc(Nc2ccc(Br)cc2)n1 [Compound 3] | 45 | 250 | Good | 100 | – | Good |
| Oc1ccc(Nc2nc(Cl)nc(Cl)n2)cc1 [Compound 4] | 43 | 250 | Poor (greater than 50% reduction between day 2 to day 8) | 100 | – | Poor |
| COc1ccc(Nc2nc(Cl)nc(Cl)n2)cc1 [Compound 5] | 33 | 250 | Fair | 100 | Good | Poor |
| Cc1ccc(Nc2nc(Cl)nc(Cl)n2)cc1 [Compound 6] | 40 | 150 | Okay (transient drop, less than 50% at day 2) | 100 | Poor (death at 840 mg/kg) | Okay |
| Clc1nc(Cl)nc(Nc2ccc(Cl)c(Cl)c2)n1 [Compound 7] | 30 | 250 | Poor (greater than 50% reduction between day 2 to day 8) | 100 | Fair (>2 mice sick) | Poor |
| Cc1ccccc1Nc1nc(Cl)nc(Cl)n1 [Compound 8] | 43 | 250 | Okay (transient drop, less than 50% at day 2) | 96 | Good | Okay |
| Cc1cc(C)c(Nc2nc(Cl)nc(Cl)n2)c(C)c1 [Compound 9] | 41 | 250 | Good | 88 | Good | Good |
| Cc1ccc(Nc2nc(Cl)nc(Cl)n2)cc1C [Compound 10] | 55 | 250 | Good | 100 | Fair (>2 mice sick) | Good |
| Cc1ccc(N(C)c2nc(Cl)nc(Cl)n2)c(C)c1 [Compound 12] | 35 | 250 | – | – | – | – |
| COc1ccc(Nc2nc(Cl)nc(Cl)n2)c(C)c1 [Compound 13] | 48 | 250 | – | – | – | – |
| CN(c1ccccc1)c1nc(Cl)nc(Cl)n1 [Compound 14] | 38 | 250 | – | – | – | – |
| O=[N+]([O-])c1cccc(Nc2nc(Cl)nc(Cl)n2)c1 [Compound 16] | 47 | 250 | Good | 72 | – | Good |
| Clc1nc(Cl)nc(Nc2ccc(-c3ccccc3)cc2)n1 [Compound 25] | 53 | 150 | – | – | – | – |
| Cc1ccc(Nc2nc(Cl)nc(Cl)n2)cc1[N+](=O)[O-] [Compound 26] | 47 | 250 | – | – | – | – |
| COc1ccc(Nc2nc(Cl)nc(Cl)n2)c([N+](=O)[O-])c1 [Compound 31] | 39 | 250 | – | – | – | – |
| Cc1ccc(N(C)c2nc(Cl)nc(Cl)n2)cc1 [Compound 33] | 33 | 250 | – | – | – | – |
| Cc1cc(O)c(C(C)(C)C)cc1Nc1nc(Cl)nc(Cl)n1 [Compound 34] | 81 | 250 | – | – | – | – |
